Measurements taken from patent US7713714B2, “Isolated nona- and decapeptides which bind to HLA molecules, and the use thereof” (Ludwig Institute for Cancer Research, priority 1997, dated 2010).
Read-outs that look alike come from different tables or passages of the source.

What was measured:
HLA-A*0201 [1] = target: T1, HLA-A*0201 (Homo sapiens, UniProt P04439, D140Y/D185E/D98H/E176V/E277Q/G131W/G231S/I119V/I121R/I166T/I218V/L300P/L318F/N151K/N90K/P208A/P217A/Q86G/Q94H/R138H/R169H/T345S)
HLA-A*0201 [2] = target: T1, HLA-A*0201; conditions: Table II; relative to SEQ ID NO: 2
CTL clone M77.80 = assay: 51Cr assay, recognition by Melan-A specific CTL clone M77.80; type: cell-based, human; conditions: Table IV; for EC50: read-out: Peptide [nM] 50%; for Relative activity: relative to SEQ ID NO: 2
TILN LAU 203 = assay: 51Cr release assay, TILN recognition of peptide on T2 cells, TILN LAU 203
CTL clone 7.10 = assay: 51Cr assay, recognition by Melan-A specific CTL clone 7.10; type: cell-based, human; conditions: Table IV; for EC50: read-out: Peptide [nM] 50%; for Relative activity: relative to SEQ ID NO: 2
CTL clone 1.13 = assay: 51Cr assay, recognition by Melan-A specific CTL clone 1.13; type: cell-based, human; conditions: Table IV; for EC50: read-out: Peptide [nM] 50%; for Relative activity: relative to SEQ ID NO: 2
TILN LAU 132 = assay: 51Cr release assay, TILN recognition of peptide on T2 cells, TILN LAU 132
HLA-A*0201 [3] = target: T1, HLA-A*0201; remark: listed apart in the source
CTL clone M77.86 = assay: 51Cr assay, recognition by Melan-A specific CTL clone M77.86; type: cell-based, human; conditions: Table IV; for EC50: read-out: Peptide [nM] 50%; for Relative activity: relative to SEQ ID NO: 2
[4] = tested on: Melan-A specific CTL clone; assay: 51Cr assay, recognition by Melan-A specific CTL clone (third clone, name not given); type: cell-based, human; conditions: Table IV; for EC50: read-out: Peptide [nM] 50%; for Relative activity: relative to SEQ ID NO: 2
[5] = tested on: five HLA-A*0201 restricted Melan-A specific CTL clones; assay: Recognition by five HLA-A*0201 restricted Melan-A specific CTL clones, statements; type: cell-based, human; conditions: compared with SEQ ID NO: 2
panel of the CTLs = assay: Recognition assay dissecting the CTL panel (Example 10)
HLA-A*0201 [6] = target: T1, HLA-A*0201; conditions: fluorescence index, 16 hours, 23° C.
HLA-A*0201 [7] = target: T1, HLA-A*0201; conditions: relative to SEQ ID NO: 1
[8] = read-out:, Table III, dose response, T2 cells
[9] = Table III, relative to SEQ ID NO: 2
[10] = Table I, [nM]50% SEQ ID NO: 2 / [nM]50% test peptide
[11] = read-out: Peptide [nM] 50%, Table I, T2 targets, effector:target 30:1, concentration giving 50% of maximum activity

| Compound | EC50 (CTL clone M77.80) | EC50 (TILN LAU 203; [8]) | EC50 (CTL clone 7.10) | EC50 (CTL clone 1.13) | EC50 (TILN LAU 132; [8]) | stability of peptide/HLA-A*0201 complexes (HLA-A*0201 [3]) | EC50 (CTL clone M77.86) | EC50 [4] | recognition by the five CTL clones, in words [5] | also measured |
| --- | --- | --- | --- | --- | --- | --- | --- | --- | --- | --- |
| C[C@H](NC(=O)[C@@H](N)CCC(=O)O)C(=O)N[C@@H](CC(=O)O)C(=O)N1CCC[C@H]1C(=O)N[C@H](C(=O)NCC(=O)N[C@@H](Cc1c[nH]cn1)C(=O)N[C@@H](CO)C(=O)N[C@@H](Cc1ccc(O)cc1)C(=O)O)[C@@H](C)O [SEQ ID NO: 21] | – | – | – | – | – | – | – | – | – | binding to HLA-A*0201 compared with SEQ ID NO: 2, in words (HLA-A*0201 [1]): no binding; Relative competitor activity (HLA-A*0201 [2]): <0.6 |
| CC[C@H](C)[C@H](NC(=O)CNC(=O)[C@H](C)NC(=O)[C@@H](N)CCSC)C(=O)NCC(=O)N[C@H](C(=O)N[C@@H](CC(C)C)C(=O)N[C@H](C(=O)N[C@H](C(=O)O)C(C)C)[C@@H](C)O)[C@@H](C)CC [SEQ ID NO: 8] | 0.5 nM | 8 nM | 15 nM | 80 nM | 2.5 nM | unstable complexes, which decay within one hour | 0.6 nM | 200 nM | – | – |
| CC[C@H](C)[C@H](NC(=O)CNC(=O)[C@H](CCSC)NC(=O)[C@H](C)N)C(=O)NCC(=O)N[C@H](C(=O)N[C@@H](CC(C)C)C(=O)N[C@H](C(=O)N[C@H](C(=O)O)C(C)C)[C@@H](C)O)[C@@H](C)CC [SEQ ID NO: 6] | > 1000 nM | > 1000 nM | > 1000 nM | > 10000 nM | > 1000 nM | intermediate stability | > 1000 nM | > 1000 nM | – | – |
| CC[C@H](C)[C@H](NC(=O)CNC(=O)[C@H](CC(C)C)NC(=O)[C@H](C)NC(=O)[C@@H](N)CCC(=O)O)C(=O)NCC(=O)N[C@H](C(=O)N[C@@H](CC(C)C)C(=O)N[C@H](C(=O)N[C@H](C(=O)O)C(C)C)[C@@H](C)O)[C@@H](C)CC [SEQ ID NO: 11] | 0.5 nM | > 1000 nM | 0.5 nM | 20 nM | > 1000 nM | intermediate stability | 0.015 nM | 0.015 nM | reduced recognition for four of five | – |
| CC[C@H](C)[C@H](NC(=O)CNC(=O)[C@H](C)NC(=O)[C@H](C)NC(=O)[C@@H](N)Cc1ccc(O)cc1)C(=O)NCC(=O)N[C@H](C(=O)N[C@@H](CC(C)C)C(=O)N[C@H](C(=O)N[C@H](C(=O)O)C(C)C)[C@@H](C)O)[C@@H](C)CC [SEQ ID NO: 13] | 1000 nM | 5 nM | 35 nM | > 10000 nM | 1 nM | – | 0.015 nM | > 1000 nM | reduced recognition by the CTLs | Relative activity (CTL clone M77.80): 0.3; Relative activity (TILN LAU 203; [9]): 20; Relative activity (CTL clone 7.10): 1.4; Relative activity (CTL clone 1.13): <0.4; recognition by a fifth CTL (panel of the CTLs): recognized; recognition by four of the CTLs (panel of the CTLs): equally well; recognition by two other CTLs (panel of the CTLs): not; Relative activity (TILN LAU 132; [9]): 30; Relative activity (CTL clone M77.86): 1000; Relative activity [4]: <0.3 |
| ILTVILGVL [SEQ ID NO: 4, reference compound] | – | – | – | – | – | – | – | – | – | Relative activity (TILN LAU 203; [10]): <4 × 10^−3; EC50 (TILN LAU 203; [11]): > 10000 nM; binding to HLA-A*0201 compared with SEQ ID NO: 2, in words (HLA-A*0201 [1]): comparable to SEQ ID NO: 2; Relative activity (TILN LAU 132; [10]): <1.5 × 10^−3; EC50 (TILN LAU 132; [11]): > 10000 nM; relative binding activity, in words (HLA-A*0201 [6]): about the same as SEQ ID NO: 2 |
| Glu Ala Ala Gly Ile Gly Ile Ala Thr Val [SEQ ID NO: 23] | – | – | – | – | – | – | – | – | – | change in competitor activity, in words (HLA-A*0201 [7]): did not result in significant changes in activity |
| Glu Ala Ala Gly Ile Gly Ile Leu Ala Val [SEQ ID NO: 24] | – | – | – | – | – | – | – | – | – | change in competitor activity, in words (HLA-A*0201 [7]): did not result in significant changes in activity |
| CC[C@H](C)[C@H](NC(=O)CNC(=O)[C@H](CCSC)NC(=O)[C@H](C)NC(=O)[C@@H](N)CCC(=O)O)C(=O)NCC(=O)N[C@H](C(=O)N[C@@H](CC(C)C)C(=O)N[C@H](C(=O)N[C@H](C(=O)O)C(C)C)[C@@H](C)O)[C@@H](C)CC [SEQ ID NO: 12] | > 1000 nM | > 1000 nM | > 1000 nM | > 10000 nM | > 1000 nM | intermediate stability | 550 nM | 40 nM | recognition improved | – |
| CC[C@H](C)[C@H](NC(=O)CNC(=O)[C@H](CC(C)C)NC(=O)[C@H](C)N)C(=O)NCC(=O)N[C@H](C(=O)N[C@@H](CC(C)C)C(=O)N[C@H](C(=O)N[C@H](C(=O)O)C(C)C)[C@@H](C)O)[C@@H](C)CC [SEQ ID NO: 5] | > 1000 nM | > 1000 nM | > 1000 nM | > 10000 nM | > 1000 nM | intermediate stability | 90 nM | > 1000 nM | – | – |
| Lys Leu Val Val Val Gly Ala Val Gly Val [SEQ ID NO: 20] | – | – | – | – | – | – | – | – | – | lysis percentage (HLA-A*0201 [1]; peptide used alone, CTL clone 7 RAS, T2 cells): 80% |
| CC[C@H](C)[C@H](NC(=O)CNC(=O)[C@H](C)NC(=O)[C@H](C)NC(=O)[C@@H](N)Cc1ccccc1)C(=O)NCC(=O)N[C@H](C(=O)N[C@@H](CC(C)C)C(=O)N[C@H](C(=O)N[C@H](C(=O)O)C(C)C)[C@@H](C)O)[C@@H](C)CC [SEQ ID NO: 14] | > 1000 nM | 1 nM | 7 nM | 200 nM | 0.05 nM | – | 0.005 nM | > 1000 nM | reduced recognition by the CTLs | Relative activity (CTL clone M77.80): <0.3; Relative activity (TILN LAU 203; [9]): 60; Relative activity (CTL clone 7.10): 7; Relative activity (CTL clone 1.13): 20; recognition by a fifth CTL (panel of the CTLs): not; recognition by four of the CTLs (panel of the CTLs): equally well; recognition by two other CTLs (panel of the CTLs): recognized; Relative activity (TILN LAU 132; [9]): 600; Relative activity (CTL clone M77.86): 3000; Relative activity [4]: <0.3 |
